Data reported in patent publication US20240207258A1, “HETEROCYCLIC PDK1 INHIBITORS FOR USE TO TREAT CANCER” (Viracta Therapeutics, Inc., priority 2015, published 2024).

What was measured:
MV4-11 tumor xenografts = assay: MV4-11 tumor xenograft efficacy; type: in vivo, mice
Source text: MV4-11 cells were propagated in vitro and implanted subcutaneous into the right flank of 9-week old female NCr nu/nu mice as described in Example 7. The animals were fed ad libitum water (reverse osmosis, 1 ppm Cl), and NIH 31 Modified and Irradiated Lab Diet® consisting of 18.0% crude protein, 5.0% crude fat, and 5.0% crude fiber. Fourteen days after tumor implantation, designated as Day 1 of the study, the animals were sorted into seven groups each consisting of ten mice with individual tumor volumes of 108 to 288 mm^3 and group mean tumor volumes (MTV) of 162 to 165 mm^3. On Day 1 of the study, dosing by oral gavage was initiated as follows: The dosing volume was 0.100 mL per 20 grams of body weight (5 mL/kg), and was scaled to the body weight of each individual animal. Group 1 mice received vehicle and served as the control group. Groups 2-4 received Compound 1 at 5, 11, and 25 mg/kg, respectively, qd×21. Groups 5-7 received Compound 2 at 5, 11, and 25 mg/kg, respectively, qd×21. Dosing solutions were prepared weekly by dissolving the appropriate amount of powder in 1% […] (DMA) in Labrasol® (vehicle) to yield a 5 mg/mL solution. The 5 mg/mL solution provided the 25 mg/kg dosage in a dosing volume of 5 mL/kg. An aliquot of the 5 mg/mL solution was diluted in the vehicle to concentrations of 2.2 and 1 mg/mL which provided the 11 and 5 mg/kg dosages, respectively, in a dosing volume of 5 mL/kg.
Tumors were measured using calipers twice per week. The study endpoint was defined as a mean tumor volume of 2000 mm^3 in the control group or 22 days, whichever came first and the study was terminated on Day 22. Animals were weighed daily on Days 1-5, then twice per week until the completion of the study. The mice were observed frequently for overt signs of any adverse, treatment related (TR) side effects, and clinical signs were recorded when observed. Individual body weight loss was monitored as per protocol and any animal whose weight exceeded the limits for acceptable body weight loss was euthanized. Group mean body weight loss also was monitored as per protocol. Dosing was to be suspended in any group whose weight exceeded the limits for acceptable mean body weight loss. If mean body weight recovered, then dosing may be resumed in that group, but at a lower dosage or less frequent dosing schedule. Acceptable toxicity was defined as a group mean body weight loss of less than 20% during the study and not more than 10% treatment-related (TR) deaths. Any dosing regimen resulting in greater toxicity was considered above the maximum tolerated dose (MTD). A death was classified as TR if attributable to treatment side effects as evidenced by clinical signs and/or necropsy, or may also be classified as TR if due to unknown causes during the dosing period or within 14 days of the last dose. A death was classified as non-treatment-related (NTR) if there was no evidence that death was related to treatment side effects.
Treatment efficacy was determined using data from the final day. The MTV (n) (the median tumor volume for the number of animals, n) on the final day was determined for each group. Group 1 mice that received vehicle p.o. qd×21 served as the control group for analysis of tumor growth inhibition (TGI) determined according to the formula % TGI=[1−(MTVdrug-treated/MTVcontrol)]×100. Treatment efficacy was also determined from the incidence and magnitude of regression responses observed during the study. Treatment may cause partial regression (PR) or complete regression (CR) of the tumor in an animal. In a PR response, the tumor volume was 50% or less of its Day 1 volume for three consecutive measurements during the course of the study, and equal to or greater than 13.5 mm^3 for one or more of these three measurements. In a CR response, the tumor volume was less than 13.5 mm^3 for three consecutive measurements during the course of the study.

MOLM-16 = assay: MTS cell proliferation assay, MOLM-16; type: cell-based; conditions: Homo sapiens, MOLM16; MOLM-16, 72 hr
Protocol: Cell proliferation was measured using the CellTiter 96 Aqueous Non-Radioactive Cell Proliferation Assay (Promega). The CellTiter 96® AQueous Assay is composed of solutions of a tetrazolium compound [3-(4,5-dimethylthiazol-2-yl)-5-(3-carboxymethoxyphenyl)-2-(4-sulfophenyl)-2H-tetrazolium, inner salt; MTS] and an electron coupling reagent (phenazine methosulfate) PMS. MTS is bioreduced by cells into a formazan product that is soluble in tissue culture medium. The absorbance of the formazan product at 490 nm can be measured directly from assay plates without additional processing. The quantity of formazan product as measured by the amount of 490 nm absorbance is directly proportional to the number of living cells in culture. Cells were seeded into 96-well or 384-well clear plates in a volume of 200 μL (96-well) or 50 μL (384-well) at optimized densities ranging from 1,000 to 40,000 cells per well for 96-well plates or 1,200 to 25,000 cells per well for 384-well plates depending on cell-line. After 4-6 hr recovery, serially diluted compounds in DMSO were added to the cells using (0.1% v/v final DMSO concentration). Cells were then grown at 37° C. in a humidified incubator with 5% CO2 for 72 hr. A 20:1 [3-(4,5-dimethylthiazol-2-yl)-5-(3-carboxymethoxyphenyl)-2-(4-sulfophenyl)-2H-tetrazolium](MTS):phenazine methosulfate (PMS) solution in DPBS was made immediately before use, added to each well, and cells were incubated for 1.5 hr at 37° C. The absorbance at 490 nm was then measured using a platereader. Absorbance values were normalized as percent of control (cells incubated in the presence of 0.1% v/v DMSO). Sigmoidal dose-response curves were plotted using log(inhibitor) vs. response—Variable slope (four parameters) model with a top value constrained to 100% (GraphPad Prism version 6.00 for Windows, GraphPad Software, La Jolla California USA). […] Curves for compounds that reached a plateau were matched exactly to the measurement points. […]

In the case of `C[C@H](NC(=O)c1nc(C#N)cnc1NCc1ccc(-c2cnc3[nH]nc(N)c3n2)cc1)c1ccc(F)c(F)c1` [Compound 1, 3-[4-(3-Amino-1H-pyrazolo[3,4-b]pyrazin-5-yl)-benzylamino]-6-cyano-pyrazine-2-carboxylic acid [1-(3,4-difluoro-phenyl)-ethyl]-amide], the “MTV (median tumor volume) on Day 22” value (MV4-11 tumor xenografts; 5 mg/kg p.o. qd×21) is reported as 446 mm^3, the “TGI (tumor growth inhibition)” value (MV4-11 tumor xenografts; 5 mg/kg p.o. qd×21, Day 22) is reported as 69% and the “regression responses (PRs)” value (MV4-11 tumor xenografts; 5 mg/kg p.o. qd×21, ten mice) is reported as “no regression responses”. For the same compound, the “MTV (median tumor volume) on Day 22” value (MV4-11 tumor xenografts; 11 mg/kg p.o. qd×21) was 288 mm^3, the “TGI (tumor growth inhibition)” value (MV4-11 tumor xenografts; 11 mg/kg p.o. qd×21, Day 22) was 80% and the “regression responses (PRs)” value (MV4-11 tumor xenografts; 11 mg/kg p.o. qd×21, ten mice) was “no regression responses”. For the same compound, the “MTV (median tumor volume) on Day 22” value (MV4-11 tumor xenografts; 25 mg/kg p.o. qd×21) was 63 mm^3, the “TGI (tumor growth inhibition)” value (MV4-11 tumor xenografts; 25 mg/kg p.o. qd×21, Day 22) was 96% and the “regression responses (PRs)” value (MV4-11 tumor xenografts; 25 mg/kg p.o. qd×21, ten mice) was “seven”. For the same compound, the EC50 (MOLM-16) was 248 nM.

`CNc1n[nH]c2ncc(-c3ccc(CNc4ncc(C#N)nc4C(=O)N[C@@H](C)c4ccc(F)c(F)c4)cc3)cc12` [Compound 2, 6-Cyano-3-[4-(3-methylamino-1H-pyrazolo[3,4-b]pyridin-5-yl)-benzylamino]-pyrazine-2-carboxylic acid [1-(3,4-difluoro-phenyl)-ethyl]-amide] was tested, and the “MTV (median tumor volume) on Day 22” value (MV4-11 tumor xenografts; 5 mg/kg p.o. qd×21) was 320 mm^3, the “TGI (tumor growth inhibition)” value (MV4-11 tumor xenografts; 5 mg/kg p.o. qd×21, Day 22) was 77% and the “regression responses (PRs)” value (MV4-11 tumor xenografts; 5 mg/kg p.o. qd×21, ten mice) was “no regression responses”. For the same compound, the “MTV (median tumor volume) on Day 22” value (MV4-11 tumor xenografts; 11 mg/kg p.o. qd×21) was 108 mm^3, the “TGI (tumor growth inhibition)” value (MV4-11 tumor xenografts; 11 mg/kg p.o. qd×21, Day 22) was 92% and the “regression responses (PRs)” value (MV4-11 tumor xenografts; 11 mg/kg p.o. qd×21, ten mice) was “three”. The “MTV (median tumor volume) on Day 22” value (MV4-11 tumor xenografts; 25 mg/kg p.o. qd×21) was 40 mm^3, the “TGI (tumor growth inhibition)” value (MV4-11 tumor xenografts; 25 mg/kg p.o. qd×21, Day 22) was 97% and the “regression responses (PRs)” value (MV4-11 tumor xenografts; 25 mg/kg p.o. qd×21, ten mice) was “eight”. For the same compound, the EC50 (MOLM-16) was 227 nM.
